Converted amounts (≈) assume the structure as drawn.
These molecules were tested on M. tuberculosis (assay: microbe, parasite or virus in culture). Details: Mycobacterium tuberculosis, 120 h; read-out: QUM (MIC80).
Assay type: cell-based
Work on `CCc1nc2c(F)cccn2c1C(=O)NCc1ccc(N2CCN(c3ccc(OC(F)(F)F)cc3)CC2)cc1` [Compound 193] yielded an MIC80 of less than 1 µM.
`CCc1nc2cc(Cl)ccn2c1C(=O)NCc1ccc(N2CCN(c3ccc(Cl)cc3)CC2)cc1` [Compound 194] gave an MIC80 of less than 1 µM.
For `CCc1nc2cc(OC)ccn2c1C(=O)NCc1ccc(N2CCC(c3ccc(C(F)(F)F)cc3)CC2)cc1` [Compound 195], the MIC80 was less than 1 µM.
`CCc1nc2ccc(Br)cn2c1C(=O)NCc1ccc(N2CCN(c3ccc(OC(F)(F)F)cc3)CC2)cc1` [Compound 197] was tested, and the MIC80 was less than 1 µM.
`CCc1nc2c(C(F)(F)F)cccn2c1C(=O)NCc1ccc(N2CCN(c3ccc(F)cc3)CC2)cc1` [Compound 198] gave an MIC80 of 1 to 20 µM (≈ 0.526 to 10.5 µg/mL).
In the case of `CCc1nc2c(Br)cccn2c1C(=O)NCc1ccc(N2CCN(c3ccc(Cl)cc3)CC2)cc1` [Compound 199], the MIC80 is reported as less than 1 µM.
With `CCc1nc2c(OC)cccn2c1C(=O)NCc1ccc(N2CCN(c3ccc(OC(F)(F)F)cc3)CC2)cc1` [Compound 200] the MIC80 was 1 to 20 µM (≈ 0.554 to 11.1 µg/mL).
For `CCc1nc2ccc(Br)cn2c1C(=O)NCc1ccc(N2CCN(c3ccc(Cl)cc3)CC2)cc1` [Compound 201], the MIC80 was less than 1 µM.
For `CCc1nc2c(C(F)(F)F)cccn2c1C(=O)NCc1ccc(N2CCN(c3ccc(OC(F)(F)F)cc3)CC2)cc1` [Compound 202], the MIC80 was 1 to 20 µM (≈ 0.592 to 11.8 µg/mL).
Work on `CCc1nc2cc(C(F)(F)F)ccn2c1C(=O)NCc1ccc(N2CCN(c3ccc(OC(F)(F)F)cc3)CC2)cc1` [Compound 203] yielded an MIC80 of less than 1 µM.
`CCc1nc2cc(Cl)ccn2c1C(=O)NCc1ccc(N2CCN(c3ccc(C(F)(F)F)cc3)CC2)cc1` [Compound 204] was tested, and the MIC80 was less than 1 µM.
Work on `CCc1nc2cc(Cl)ccn2c1C(=O)NCc1ccc(N2CCC(c3ccc(OC)cc3)CC2)cc1` [Compound 205] yielded an MIC80 of less than 1 µM.
`CCc1nc2cc(C(F)(F)F)ccn2c1C(=O)NCc1ccc(N2CCN(c3ccc(C(F)(F)F)cc3)CC2)cc1` [Compound 206] gave an MIC80 of less than 1 µM.
For `CCc1nc2cc(Br)ccn2c1C(=O)NCc1ccc(N2CCN(c3ccc(C)cc3)CC2)cc1` [Compound 207], the MIC80 was less than 1 µM.
Work on `CCc1nc2cc(Br)ccn2c1C(=O)NCc1ccc(N2CCN(c3ccc(OC)cc3)CC2)cc1` [Compound 208] yielded an MIC80 of less than 1 µM.
`CCc1nc2c(C(F)(F)F)cccn2c1C(=O)NCc1ccc(N2CCN(c3ccc(Cl)cc3)CC2)cc1` [Compound 209] gave an MIC80 of 1 to 20 µM (≈ 0.542 to 10.8 µg/mL).
`CCc1nc2ccc(OC)cn2c1C(=O)NCc1ccc(N2CCN(c3ccc(C(F)(F)F)cc3)CC2)cc1` [Compound 210] gave an MIC80 of less than 1 µM.
Molecule `CCc1nc2cc(C(F)(F)F)ccn2c1C(=O)NCc1ccc(N2CCN(c3ccc(Cl)cc3)CC2)cc1` [Compound 211] has an MIC80 of less than 1 µM.
In the case of `CCc1nc2c(OC)cccn2c1C(=O)NCc1ccc(N2CCC(c3ccc(Cl)cc3)CC2)cc1` [Compound 212], the MIC80 is reported as 1 to 20 µM (≈ 0.503 to 10.1 µg/mL).
`CCc1nc2c(Br)cccn2c1C(=O)NCc1ccc(N2CCC(c3ccc(Cl)cc3)CC2)cc1` [Compound 213] showed an MIC80 of less than 1 µM.
For `CCc1nc2cc(Br)ccn2c1C(=O)NCc1ccc(N2CCN(c3ccc(C(F)(F)F)cc3)CC2)cc1` [Compound 214], the MIC80 was less than 1 µM.
Molecule `CCc1nc2c(OC)cccn2c1C(=O)NCc1ccc(N2CCC(c3ccc(C)cc3)CC2)cc1` [Compound 215] has an MIC80 of 1 to 20 µM (≈ 0.483 to 9.65 µg/mL).
`CCc1nc2ccc(C)cn2c1C(=O)NCc1ccc(N2CCC(c3ccccc3)CC2)cc1` [Compound 216] gave an MIC80 of less than 1 µM.
`CCc1nc2c(C(F)(F)F)cccn2c1C(=O)NCc1ccc(N2CCN(c3ccc(C(F)(F)F)cc3)CC2)cc1` [Compound 217] showed an MIC80 of 1 to 20 µM (≈ 0.576 to 11.5 µg/mL).
Work on `CCc1nc2c(Br)cccn2c1C(=O)NCc1ccc(N2CCN(c3ccc(C(F)(F)F)cc3)CC2)cc1` [Compound 218] yielded an MIC80 of less than 1 µM.
`CCc1nc2cc(Br)ccn2c1C(=O)NCc1ccc(N2CCC(c3ccc(C)cc3)CC2)cc1` [Compound 219] gave an MIC80 of less than 1 µM.
In the case of `CCc1nc2cc(OC)ccn2c1C(=O)NCc1ccc(N2CCN(c3ccc(Cl)cc3)CC2)cc1` [Compound 220], the MIC80 is reported as less than 1 µM.
Molecule `CCc1nc2cc(Cl)ccn2c1C(=O)NCc1ccc(N2CCC(c3ccc(C)cc3)CC2)cc1` [Compound 221] has an MIC80 of less than 1 µM.
Molecule `CCc1nc2ccc(C)cn2c1C(=O)NCc1ccc(N2CCC(c3ccc(OC)cc3)CC2)cc1` [Compound 222] has an MIC80 of less than 1 µM.
`CCc1nc2ccc(C(F)(F)F)cn2c1C(=O)NCc1ccc(N2CCC(c3ccc(OC(F)(F)F)cc3)CC2)cc1` [Compound 223] gave an MIC80 of less than 1 µM.
Molecule `CCc1nc2c(Cl)cccn2c1C(=O)NCc1ccc(N2CCC(c3ccc(OC(F)(F)F)cc3)CC2)cc1` [Compound 224] has an MIC80 of less than 1 µM.
`CCc1nc2c(C)cccn2c1C(=O)NCc1ccc(N2CCC(c3ccc(F)cc3)CC2)cc1` [Compound 225] showed an MIC80 of less than 1 µM.
`CCc1nc2ccc(C(F)(F)F)cn2c1C(=O)NCc1ccc(N2CCC(c3ccc(Cl)cc3)CC2)cc1` [Compound 226] was tested, and the MIC80 was less than 1 µM.
Molecule `CCc1nc2ccc(C(F)(F)F)cn2c1C(=O)NCc1ccc(N2CCC(c3ccc(F)cc3)CC2)cc1` [Compound 227] has an MIC80 of less than 1 µM.
`CCc1nc2cc(C(F)(F)F)ccn2c1C(=O)NCc1ccc(N2CCC(c3ccc(OC(F)(F)F)cc3)CC2)cc1` [Compound 228] showed an MIC80 of less than 1 µM.
`CCc1nc2cc(F)ccn2c1C(=O)NCc1ccc(N2CCN(c3ccc(C(F)(F)F)cc3)CC2)cc1` [Compound 229] showed an MIC80 of less than 1 µM.
With `CCc1nc2ccccn2c1C(=O)NCc1ccc(N2CCC(c3ccc(C(F)(F)F)cc3)CC2)cc1` [Compound 230] the MIC80 was less than 1 µM.
`CCc1nc2cc(C)ccn2c1C(=O)NCc1ccc(N2CCC(c3ccc(C)cc3)CC2)cc1` [Compound 231] gave an MIC80 of less than 1 µM.
With `CCc1nc2ccc(Cl)cn2c1C(=O)NCc1ccc(N2CCC(NC(=O)Cc3ccc(F)cc3)CC2)cc1` [Compound 232] the MIC80 was greater than 20 µM.
`CCc1nc2ccc(Cl)cn2c1C(=O)NCc1ccc(N2CCC(OCc3ccccc3)CC2)cc1` [Compound 233] was tested, and the MIC80 was less than 1 µM.
Molecule `CCc1nc2ccc(Cl)cn2c1C(=O)NCc1ccc(N2CCC(NC(=O)c3ccc(F)cc3)CC2)cc1` [Compound 234] has an MIC80 greater than 20 µM.
`CCc1nc2ccc(Cl)cn2c1C(=O)NCc1ccc(N2CCN(C(=O)c3ccc(F)cc3)CC2)cc1` [Compound 235] showed an MIC80 of less than 1 µM.
For `CCc1nc2ccc(Cl)cn2c1C(=O)NCc1ccc(N2CCN(C(=O)Cc3ccc(F)cc3)CC2)cc1` [Compound 236], the MIC80 was less than 1 µM.
With `CCc1nc2ccc(Cl)cn2c1C(=O)NCc1ccc(N2CCC(C)(O)CC2)cc1` [Compound 237] the MIC80 was less than 1 µM.
For `CCc1nc2ccc(Cl)cn2c1C(=O)NCc1ccc(N2CCC(O)(CC)CC2)cc1` [Compound 238], the MIC80 was less than 1 µM.
For `CCc1nc2ccc(Cl)cn2c1C(=O)NCc1ccc(N2CCC(O)(c3ccccc3)CC2)cc1` [Compound 239], the MIC80 was less than 1 µM.
For `CCc1nc2ccc(Cl)cn2c1C(=O)NCc1ccc(N2CCC(C(=O)c3ccc(F)cc3)CC2)cc1` [Compound 240], the MIC80 was less than 1 µM.
Work on `CCc1nc2ccc(Cl)cn2c1C(=O)NCc1ccc(N2CCC(C(=O)c3ccc(OC(F)(F)F)cc3)CC2)cc1` [Compound 241] yielded an MIC80 of less than 1 µM.
`CCc1nc2ccc(Cl)cn2c1C(=O)NCc1ccc(N2CCC(C(=O)Cc3ccc(F)cc3)CC2)cc1` [Compound 242] was tested, and the MIC80 was less than 1 µM.
Work on `CCc1nc2ccc(Cl)cn2c1C(=O)NCc1ccc(C2CCN(C(=O)c3ccc(F)cc3)CC2)cc1` [Compound 243] yielded an MIC80 of less than 1 µM.
`CCc1nc2ccc(Cl)cn2c1C(=O)NCc1ccc(/C=C/c2ccc(F)cc2)cc1` [Compound 246] gave an MIC80 of less than 1 µM.
In the case of `CCc1nc2ccccn2c1C(=O)NCc1ccc(CC2CCOCC2)cc1` [Compound 252], the MIC80 is reported as less than 1 µM.
`CCc1nc2ccc(Cl)cn2c1C(=O)NCc1nc2ccc(Cl)cc2[nH]1` [Compound 260] was tested, and the MIC80 was greater than 20 µM.
With `CCc1nc2cc(Cl)ccn2c1C(=O)NCc1ccc2c(c1)ncn2C` [Compound 272] the MIC80 was 1 to 20 µM (≈ 0.368 to 7.36 µg/mL).
Work on `CCc1nc2ccc(Cl)cn2c1C(=O)NCc1ccc2cc[nH]c2c1` [Compound 273] yielded an MIC80 of less than 1 µM.
`CCc1nc2ccc(Cl)cn2c1C(=O)NCc1ccc2ncn(Cc3ccc(OC(F)(F)F)cc3)c2c1` [Compound 274] was tested, and the MIC80 was 1 to 20 µM (≈ 0.528 to 10.6 µg/mL).
`CCc1nc2cc(Cl)ccn2c1C(=O)NCc1ccc2ncn(Cc3ccc(OC(F)(F)F)cc3)c2c1` [Compound 275] showed an MIC80 greater than 20 µM.
Work on `CCc1nc2cc(Cl)ccn2c1C(=O)NCc1ccc2nc[nH]c2c1` [Compound 276] yielded an MIC80 greater than 20 µM.
`CCc1nc2cc(Cl)ccn2c1C(=O)NCc1ccc(NC(=O)NC(C)(C)C)cc1` [Compound 277] gave an MIC80 greater than 20 µM.
`CCc1nc2ccc(Cl)cn2c1C(=O)NCc1ccc(NC(=O)NC(C)(C)C)cc1` [Compound 278] was tested, and the MIC80 was 1 to 20 µM (≈ 0.428 to 8.56 µg/mL).
`CCc1nc2cc(Cl)ccn2c1C(=O)NCc1csc(-c2ccc(OC(F)(F)F)cc2)n1` [Compound 279] showed an MIC80 of less than 1 µM.
With `CCc1nc2ccc(Cl)cn2c1C(=O)NCc1csc(-c2ccc(OC(F)(F)F)cc2)n1` [Compound 280] the MIC80 was less than 1 µM.
In the case of `CCc1nc2c(F)cccn2c1C(=O)NCc1cccc(N2CCOCC2)c1` [Compound 281], the MIC80 is reported as 1 to 20 µM (≈ 0.382 to 7.65 µg/mL).
With `Cc1nc2cc(Cl)ccn2c1C(=O)NCc1ccc(N2CCC(c3ccc(F)cc3)CC2)cc1` [Compound 297] the MIC80 was less than 1 µM.
Molecule `Cc1nc2cc(Cl)ccn2c1C(=O)NCc1ccc(N2CCC(c3ccc(C(F)(F)F)cc3)CC2)cc1` [Compound 298] has an MIC80 of less than 1 µM.
Molecule `Cc1ccc(C2CCN(c3ccc(CNC(=O)c4c(C)nc5cc(Cl)ccn45)cc3)CC2)cc1` [Compound 299] has an MIC80 of less than 1 µM.
Work on `Cc1nc2cc(Cl)ccn2c1C(=O)NCc1ccc(N2CCC(c3ccc(OC(F)(F)F)cc3)CC2)cc1` [Compound 300] yielded an MIC80 of less than 1 µM.
In the case of `CCc1nc2ccc(Cl)cn2c1C(=O)NCc1ccc(C(=O)Nc2ccc(F)cc2)cc1` [Compound 301], the MIC80 is reported as less than 1 µM.
For `CCc1nc2cc(Cl)ccn2c1C(=O)NCc1ccc(C(=O)Nc2ccc(F)cc2)cc1` [Compound 302], the MIC80 was less than 1 µM.
Work on `CCc1nc2ccc(Cl)cn2c1C(=O)NCc1ccc(C(=O)CN2CCOCC2)cc1` [Compound 303] yielded an MIC80 of less than 1 µM.
Work on `CCc1nc2cc(Cl)ccn2c1C(=O)NCc1ccc(C(=O)CN2CCOCC2)cc1` [Compound 304] yielded an MIC80 of 1 to 20 µM (≈ 0.441 to 8.82 µg/mL).
`CCc1nc2ccc(Cl)cn2c1C(=O)NCc1ccc(C(=O)N(C)c2ccc(F)cc2)cc1` [Compound 305] showed an MIC80 of 1 to 20 µM (≈ 0.465 to 9.3 µg/mL).
Work on `CCc1nc2cc(Cl)ccn2c1C(=O)NCc1ccc(C(=O)N(C)c2ccc(F)cc2)cc1` [Compound 306] yielded an MIC80 of 1 to 20 µM (≈ 0.465 to 9.3 µg/mL).
`CCc1nc2ccc(Cl)cn2c1C(=O)NCc1ccc(N2CCOCC2)c(F)c1` [Compound 307] showed an MIC80 of less than 1 µM.
Molecule `CCc1nc2cc(Cl)ccn2c1C(=O)NCc1ccc(N2CCOCC2)c(F)c1` [Compound 308] has an MIC80 of less than 1 µM.
In the case of `Cc1ccc(C2CCN(c3ccc(CNC(=O)c4c(C)nc5c(F)cccn45)cc3)CC2)cc1` [Compound 309], the MIC80 is reported as less than 1 µM.

Reference: US20160185774A1, “Anti-Infective Compounds” (priority 2013, published 2016)
